Measurements reported in patent publication EP4763845A1, “CYANO AROMATIC RING DERIVATIVE AND PHARMACEUTICAL USE THEREOF” (Haisco Pharmaceutical Group Co., Ltd., priority 2023, dated 2025).
Read-outs that look alike come from different tables or passages of the source.

Tests used:
Assay type in all cases: cell-based
VCaP cells = experiment: VCaP cell proliferation inhibition experiment (CellTiter-Glo); conditions: Homo sapiens, 168 h
Method: After centrifugation and resuspension, viable cell counting was performed using a Vi-Cell XR cell counter. […] Then, 180 µl of the cell suspension was added per well to a 96-well cell culture plate at a cell density of 7,500 cells/well. At the time of seeding, T0 wells were also prepared. The following day, R1881 at a final concentration of 0.1 nM and compounds at various concentrations were added. The plate was placed back into the incubator and cultured for an additional 7 days. At the time of compound addition, the T0 plate was measured using the CellTiter-Glo (CTG) kit (Promega, Cat. No. G7572) and recorded as RLU0. Following incubation, 75 µl of pre-thawed and room temperature-equilibrated CellTiter-Glo solution was added to each well. […] The results were processed according to Equation (2). […] Growth% = (RLUcompound−RLU0)/(RLUcontrol−RLU0) × 100% [formula]

hERG potassium channel = target: T1, hERG potassium channel (Homo sapiens, UniProt Q12809); experiment: hERG potassium ion channel test (manual patch-clamp, CHO cells)
T1 construct: expressed in transfected cells; host or cells: CHO cells stably expressing hERG
Source text: Experimental platform: Electrophysiological manual patch-clamp system
Cell line: Chinese hamster ovary (CHO) cell lines stably expressing hERG potassium ion channel
Experimental method: In Chinese Hamster Ovary (CHO) cells stably expressing hERG potassium channel, whole cell patch-clamp technique was used to record hERG potassium channel current at room temperature. The glass microelectrode was made of a glass electrode blank (BF150-86-10, Sutter) by a puller. The tip resistance after filling the liquid in the electrode was about 2-5 MΩ. The glass microelectrode can be connected to the patch-clamp amplifier by inserting the glass microelectrode into an amplifier probe. The clamping voltage and data recording were controlled and recorded by the pClamp 10 software through a computer. The sampling frequency was 10 kHz, and the filtering frequency was 2 kHz. After the whole cell records were obtained, the cells were clamped at -80 mV, and the step voltage that induced the hERG potassium current (I hERG) was depolarised from -80 mV to +20 mV for 2 s, then repolarised to -50 mV, and returned to -80 mV after 1 s. This voltage stimulation was given every 10 s, and the administration process was started after the hERG potassium current was confirmed to be stable (at least 1 minute). The compound was administered for at least 1 minute at each test concentration, and at least 2 cells (n ≥ 2) were tested at each concentration.
Data processing: Data analysis processing was carried out by using pClamp 10, GraphPad Prism 5 and Excel software.
Compound IC50 was calculated using GraphPad Prism 5 software by fitting according to the following equation: Y = Bottom + (Top−Bottom)/(1+10^(∧)((LogIC50−X)*HillSlope)) [formula] where X represents the Log value of the tested concentration of the test sample, Y represents the inhibition percentage at the corresponding concentration, and Bottom and Top represent the minimum and maximum inhibition percentage, respectively.

AR protein = target: T2, AR protein (Homo sapiens, UniProt P10275); experiment: Detection of AR degradation in VCaP cells (automated western blot); conditions: for DC50: degradation of AR protein in VCaP cells, 24 hours incubation, read-out: DC50; for Degradation rate %: AR protein in VCaP cells, concentration of 30 nM, 24 hours
T2 construct: VCap is a human prostate cancer cell line purchased from ATCC; host or cells: VCaP human prostate cancer cells
T2 sequence (P10275 1-920): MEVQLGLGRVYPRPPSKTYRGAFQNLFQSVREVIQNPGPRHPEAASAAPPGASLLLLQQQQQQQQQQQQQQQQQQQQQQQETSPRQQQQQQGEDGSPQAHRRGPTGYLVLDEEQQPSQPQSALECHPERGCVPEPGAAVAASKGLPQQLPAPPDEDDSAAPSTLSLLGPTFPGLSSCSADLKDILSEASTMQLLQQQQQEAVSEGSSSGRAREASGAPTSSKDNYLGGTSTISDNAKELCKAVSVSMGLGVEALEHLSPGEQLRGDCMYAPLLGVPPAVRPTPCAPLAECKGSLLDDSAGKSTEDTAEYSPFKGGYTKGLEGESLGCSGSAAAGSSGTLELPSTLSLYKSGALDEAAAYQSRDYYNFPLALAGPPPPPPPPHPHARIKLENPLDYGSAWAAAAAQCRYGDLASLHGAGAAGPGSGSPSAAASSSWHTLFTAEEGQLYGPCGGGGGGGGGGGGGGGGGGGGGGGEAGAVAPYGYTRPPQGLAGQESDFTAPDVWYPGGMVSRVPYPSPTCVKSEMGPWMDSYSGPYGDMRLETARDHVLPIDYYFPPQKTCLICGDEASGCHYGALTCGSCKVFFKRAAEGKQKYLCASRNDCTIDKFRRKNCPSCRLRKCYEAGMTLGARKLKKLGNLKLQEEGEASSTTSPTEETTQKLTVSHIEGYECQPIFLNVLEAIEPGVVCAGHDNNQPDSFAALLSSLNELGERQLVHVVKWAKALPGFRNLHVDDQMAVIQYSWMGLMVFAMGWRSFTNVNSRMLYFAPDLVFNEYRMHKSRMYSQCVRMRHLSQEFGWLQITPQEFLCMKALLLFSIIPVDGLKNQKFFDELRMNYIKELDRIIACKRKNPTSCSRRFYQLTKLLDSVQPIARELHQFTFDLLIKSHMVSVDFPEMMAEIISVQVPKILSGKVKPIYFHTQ
Method: VCap is a human prostate cancer cell line purchased from ATCC and cultured under the following conditions: DMEM + 10% FBS + 1% penicillin-streptomycin solution. The cells were cultured in a 37°C, 5% CO2 incubator. The cells were seeded in a 6-well plate, with 5 × 10^5 cells/well. After seeding, compounds at various concentrations were added, and the plate was incubated for 24 hours in the 37°C, 5% CO2 incubator. Following incubation, the cells were harvested and RIPA lysis buffer (beyotime, Cat. P0013B) was added. The cells were lysed on ice for 15 minutes and centrifuged at 12,000 rpm at 4°C for 10 minutes. The supernatant protein samples were collected and the protein was quantified using the BCA kit (Beyotime, Cat. P0009). Then the protein was diluted to 0.25 mg/mL. The expressions of AR (CST, Cat.5153S) and the internal reference β-actin (CST, Cat. 3700S) were detected using a fully automated western blot quantitative analyser (Proteinsimple). Using the "Compass for SW" software, the relative peak area of AR was calculated when the internal reference area was 10,000. The proportion of AR relative to the solvent control group at various drug concentrations was calculated according to Equation (1), where ARtreat represents the relative peak area of the compound-treated group, and ARsolvent represents the relative peak area of the solvent control group. The processed data obtained from Equation (1) were analysed using GraphPad Prism 8.3.0 software, and the DC50 value was calculated using a four-parameter nonlinear regression model. The degradation rate at a specified concentration was determined as 100-AR%. AR% = ARtreat/ ARsolvent × 100% [formula]

[1] = chinese hamster, inhibitory activity against hERG potassium channel current, CHO cells, whole cell patch-clamp, read-out: IC50

T1 sequence (Q12809 whole entry): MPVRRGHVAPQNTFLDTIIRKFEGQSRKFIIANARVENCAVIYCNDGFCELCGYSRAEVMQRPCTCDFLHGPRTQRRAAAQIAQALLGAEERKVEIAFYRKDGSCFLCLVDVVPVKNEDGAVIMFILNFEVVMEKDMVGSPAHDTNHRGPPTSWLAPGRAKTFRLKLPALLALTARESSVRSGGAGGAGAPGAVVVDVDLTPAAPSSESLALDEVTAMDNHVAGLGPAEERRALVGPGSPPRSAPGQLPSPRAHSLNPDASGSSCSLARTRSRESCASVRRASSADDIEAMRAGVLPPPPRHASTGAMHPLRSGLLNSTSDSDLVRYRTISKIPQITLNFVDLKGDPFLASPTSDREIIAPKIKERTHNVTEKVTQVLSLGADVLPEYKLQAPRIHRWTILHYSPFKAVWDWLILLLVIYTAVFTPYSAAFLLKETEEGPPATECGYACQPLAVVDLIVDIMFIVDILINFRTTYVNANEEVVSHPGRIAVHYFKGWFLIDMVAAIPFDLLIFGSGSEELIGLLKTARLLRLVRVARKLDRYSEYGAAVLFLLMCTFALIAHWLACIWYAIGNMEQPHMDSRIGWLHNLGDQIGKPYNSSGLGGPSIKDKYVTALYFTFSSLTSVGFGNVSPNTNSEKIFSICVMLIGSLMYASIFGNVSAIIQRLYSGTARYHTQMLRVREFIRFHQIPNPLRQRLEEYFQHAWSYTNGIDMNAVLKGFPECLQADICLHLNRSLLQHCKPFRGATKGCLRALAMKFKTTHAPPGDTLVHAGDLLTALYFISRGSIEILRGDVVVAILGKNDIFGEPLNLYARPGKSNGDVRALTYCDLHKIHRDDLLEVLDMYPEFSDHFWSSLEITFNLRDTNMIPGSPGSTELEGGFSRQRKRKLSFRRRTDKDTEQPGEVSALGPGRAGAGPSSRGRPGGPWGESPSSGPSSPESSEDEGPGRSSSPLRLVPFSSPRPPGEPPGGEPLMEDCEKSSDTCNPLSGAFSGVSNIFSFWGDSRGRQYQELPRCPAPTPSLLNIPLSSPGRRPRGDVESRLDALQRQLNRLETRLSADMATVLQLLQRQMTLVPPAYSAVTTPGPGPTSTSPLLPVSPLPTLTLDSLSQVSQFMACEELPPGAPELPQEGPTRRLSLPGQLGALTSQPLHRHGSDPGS

With `[2H]C([2H])([2H])Oc1cc(O[C@H]2C(C)(C)[C@H](NC(=O)c3ccc(N4CCC5(CC4)CC(N4CCN6c7cc(F)c(N8CCC(=O)NC8=O)cc7CC[C@@H]6C4)C5)cc3)C2(C)C)ccc1C#N` [Compound 94] the GI50 (VCaP cells) was < 300 nM.

For `[2H]C([2H])([2H])Oc1cc(O[C@H]2C(C)(C)[C@H](NC(=O)c3ccc(N4CCC(CN5CCN6c7cc(F)c(C8CCC(=O)NC8=O)cc7CC[C@H]6C5)CC4)nn3)C2(C)C)ccc1C#N` (stereo partly shown) [Compound 86], the GI50 (VCaP cells) was < 300 nM.

`COc1cc(O[C@H]2C(C)(C)[C@H](NC(=O)c3ccc(N4CCC(CN5CCN6c7cc(F)c(C8CCC(=O)NC8=O)cc7CC[C@H]6C5)CC4)cc3)C2(C)C)ccc1C#N` (stereo partly shown) [Trifluoroacetate of compound 1] was tested, and the IC50 (hERG potassium channel; chinese hamster, cho cells) was > 40000 nM and the DC50 (AR protein) was < 100 nM.

For `CC1(C)[C@H](NC(=O)c2ccc(N3CCC(CN4CCN5c6cc(F)c(C(=O)N[C@H]7CCC(=O)NC7=O)cc6CC[C@H]5C4)CC3)cc2)C(C)(C)[C@H]1Oc1ccc(C#N)c2ncccc12` [Compound 35], the IC50 (hERG potassium channel; [1]) was > 40000 nM and the DC50 (AR protein) was < 100 nM.

`[2H]C([2H])([2H])Oc1cc(O[C@H]2C(C)(C)[C@H](NC(=O)c3ccc(N4CCC(CN5CCN6c7cc(F)c(C(=O)N[C@H]8CCC(=O)NC8=O)cc7CC[C@@H]6C5)CC4)nn3)C2(C)C)ccc1C#N` [Compound 87] was tested, and the GI50 (VCaP cells) was < 500 nM.

For `[2H]C([2H])([2H])Oc1cc(O[C@H]2C(C)(C)[C@H](NC(=O)c3ccc(N4CCC(CN5CCN6c7cc(F)c(C8CCC(=O)NC8=O)cc7CC[C@H]6C5)CC4)cc3)C2(C)C)ccc1C#N` (stereo partly shown) [Compound 37], the GI50 (VCaP cells) was < 300 nM and the DC50 (AR protein) was < 100 nM.

With `CC1(C)[C@H](NC(=O)c2ccc(N3CCC(CN4CCN5c6cc(F)c(C(=O)N[C@H]7CCC(=O)NC7=O)cc6CC[C@@H]5C4)CC3)cc2)C(C)(C)[C@H]1Oc1ccc(C#N)c(Cl)c1` [Compound 52] the GI50 (VCaP cells) was < 300 nM.

`CC1(C)[C@H](NC(=O)c2ccc(N3CCC(CN4CCN5c6cc(F)c(C(=O)N[C@H]7CCC(=O)NC7=O)cc6CC[C@@H]5C4)CC3)cc2)C(C)(C)[C@H]1Oc1ccc(C#N)c2ncccc12` [Compound 34] was tested, and the IC50 (hERG potassium channel; [1]) was > 40000 nM and the DC50 (AR protein) was < 100 nM.

In the case of `CC1(C)[C@H](NC(=O)c2ccc(N3CCC4(CC3)CC(CN3CCN5c6cc(F)c(C7CCC(=O)NC7=O)cc6CC[C@H]5C3)C4)cc2)C(C)(C)[C@H]1Oc1ccc(C#N)c2ncccc12` (stereo partly shown) [Compound 73], the IC50 (hERG potassium channel; [1]) is reported as > 40000 nM and the DC50 (AR protein) is reported as < 100 nM.

`CC1(C)[C@H](NC(=O)c2ccc(N3CCC(CN4CCN5c6cc(F)c(N7CCC(=O)NC7=O)cc6CC[C@H]5C4)CC3)cc2)C(C)(C)[C@H]1Oc1ccc(C#N)c2ncccc12` [Trifluoroacetate of compound 33] was tested, and the GI50 (VCaP cells) was < 500 nM and the DC50 (AR protein) was < 100 nM.

`[2H]C([2H])([2H])Oc1cc(O[C@H]2C(C)(C)[C@H](NC(=O)c3ccc(N4CCC(CN5CCN6c7cc(F)c(C(=O)N[C@H]8CCC(=O)NC8=O)cc7CC[C@@H]6C5)CC4)cc3)C2(C)C)ccc1C#N` [Compound 40] was tested, and the GI50 (VCaP cells) was < 300 nM and the DC50 (AR protein) was < 100 nM.

With `COc1cc(O[C@H]2C(C)(C)[C@H](NC(=O)c3ccc(N4CCC(CN5CCN6c7cc(F)c(C(=O)NC8CCC(=O)NC8=O)cc7CC[C@@H]6C5)CC4)cc3)C2(C)C)ccc1C#N` (stereo partly shown) [Trifluoroacetate of compound 4] the IC50 (hERG potassium channel; [1]) was > 40000 nM and the DC50 (AR protein) was < 100 nM.

For `CC1(C)[C@H](NC(=O)c2ccc(N3CCC(CN4CCN5c6cc(F)c(C7CCC(=O)NC7=O)cc6CC[C@H]5C4)CC3)cc2)C(C)(C)[C@H]1Oc1ccc(C#N)c(C2CC2)c1` (stereo partly shown) [Compound 118], the IC50 (hERG potassium channel; inhibitory activity against hERG potassium channel current, CHO cells, whole cell patch-clamp, read-out: IC50) was > 40000 nM and the Degradation rate % (AR protein) was >70%.

In the case of `COc1cc(O[C@H]2C(C)(C)[C@H](NC(=O)c3ccc(N4CCC(CN5CCN6c7cc(F)c(N8CCC(=O)NC8=O)cc7CC[C@@H]6C5)CC4)cc3)C2(C)C)ccc1C#N` [Compound 28], the IC50 (hERG potassium channel) is reported as > 40000 nM.

`COc1cc(O[C@H]2C(C)(C)[C@H](NC(=O)c3ccc(N4CCC(CN5CCN6c7ncc(C8CCC(=O)NC8=O)cc7CC[C@@H]6C5)CC4)cc3)C2(C)C)ccc1C#N` (stereo partly shown) [Compound 93] was tested, and the Degradation rate % (AR protein) was >70%.

For `Cc1cc(O[C@H]2C(C)(C)[C@H](NC(=O)c3ccc(N4CCC(CN5CCN6c7cc(F)c(N8CCC(=O)NC8=O)cc7CC[C@@H]6C5)CC4)cc3)C2(C)C)cc(C)c1C#N` [Compound 82], the DC50 (AR protein) was < 100 nM.

`COc1cc(O[C@H]2C(C)(C)[C@H](NC(=O)c3ccc(N4CCC(CN5CCN6c7cc(F)c(C8CCC(=O)NC8=O)cc7CC[C@@H]6C5)CC4)cc3)C2(C)C)ccc1C#N` (stereo partly shown) [Trifluoroacetate of compound 2] was tested, and the IC50 (hERG potassium channel) was > 40000 nM and the DC50 (AR protein) was < 100 nM.

`COc1cc(O[C@H]2C(C)(C)[C@H](NC(=O)c3ccc(N4CCC(CN5CCN6c7cc(F)c(C(=O)NC8CCC(=O)NC8=O)cc7CC[C@H]6C5)CC4)cc3)C2(C)C)ccc1C#N` (stereo partly shown) [Trifluoroacetate of compound 3] was tested, and the IC50 (hERG potassium channel; [1]) was > 40000 nM and the DC50 (AR protein) was < 100 nM.

With `Cc1cc(O[C@H]2C(C)(C)[C@H](NC(=O)c3ccc(N4CCC(CN5CCN6c7cc(F)c(C8CCC(=O)NC8=O)cc7CC[C@H]6C5)CC4)cc3)C2(C)C)cc(C)c1C#N` (stereo partly shown) [Compound 78] the DC50 (AR protein) was < 100 nM.

`CC1(C)[C@H](NC(=O)c2ccc(N3CCC4(CC3)CC(CN3CCN5c6cc(F)c(C7CCC(=O)NC7=O)cc6CC[C@H]5C3)C4)cc2)C(C)(C)[C@H]1Oc1ccc(C#N)c(Cl)c1` (stereo partly shown) [Compound 55] was tested, and the DC50 (AR protein) was < 100 nM.
